These results are taken from ChEMBL document CHEMBL1135133, “Scaffold hopping and optimization towards libraries of glycogen synthase kinase-3 inhibitors” (Bioorg Med Chem Lett, 2002).

Each structure is given as a SMILES string.

For this experiment, the target named is Glycogen synthase kinase-3 beta (Homo sapiens, UniProt P49841). Briefly: Inhibitory concentration against human Glycogen synthase kinase-3.
Chain of Glycogen synthase kinase-3 beta (P49841 whole entry): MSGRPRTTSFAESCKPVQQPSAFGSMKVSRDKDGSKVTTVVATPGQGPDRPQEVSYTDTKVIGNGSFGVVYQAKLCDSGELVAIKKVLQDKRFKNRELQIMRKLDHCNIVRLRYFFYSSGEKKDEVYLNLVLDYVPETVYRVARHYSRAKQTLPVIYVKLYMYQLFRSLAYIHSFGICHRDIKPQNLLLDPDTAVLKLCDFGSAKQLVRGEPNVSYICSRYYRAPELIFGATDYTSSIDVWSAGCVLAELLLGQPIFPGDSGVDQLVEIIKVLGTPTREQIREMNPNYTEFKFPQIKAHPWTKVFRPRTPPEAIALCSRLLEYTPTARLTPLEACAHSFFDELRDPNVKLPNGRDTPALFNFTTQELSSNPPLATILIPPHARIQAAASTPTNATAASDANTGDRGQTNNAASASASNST
Compound `O=C(O)Cc1ccc(CSc2nnc(-c3ccccn3)s2)cc1` yielded an IC50 of more than 250 µM.
Compound `c1ccc(CCSc2nnc(-c3ccncc3)o2)cc1` came in with a half-maximal inhibitory concentration (IC50) of 29 µM.
`c1ccc(CSc2nnc(-c3ccncc3)o2)cc1` showed an IC50 of 6.7 µM.
To `O=C(O)Cc1ccc(CSc2n[nH]c(-c3ccncc3)n2)cc1` belongs more than 250 µM; to `Ic1ccc(CSc2nnc(-c3ccncc3)o2)cc1`, 198 µM.
The same measure for `O=C(Cc1ccc(CSc2nnc(-c3ccncc3)o2)cc1)NCCc1ccccc1F`: 1.2 µM.
`Clc1ccccc1CSc1nnc(-c2ccncc2)o1` gave an IC50 of 12 µM.
The compound `Clc1cccc(CSc2nnc(-c3ccncc3)o2)c1` yielded an IC50 of 0.82 µM.
For the compound `COC(=O)c1cccc(CSc2nnc(-c3ccncc3)o2)c1`, 1.1 µM corresponded to half-maximal inhibition (IC50).
The same measure for `O=C(O)c1ccc(CSc2nnc(-c3ccncc3)o2)cc1`: 29 µM.
`Cc1nc(-c2cccc(CSc3nnc(-c4ccncc4)o3)c2)no1`: the IC50 is more than 250 µM.
To `O=C(O)Cc1ccc(CSc2nnc(-c3cccnc3)s2)cc1` belongs more than 250 µM; to `O=C(O)Cc1ccc(CSc2nnc(-c3ccncc3)s2)cc1`, 11 µM.
In the case of `O=C(O)Cc1ccc(CSc2nnc(-c3ccncc3)o2)cc1`, the IC50 came to 8 µM.
In the case of `O=C(O)c1cccc(CSc2nnc(-c3ccncc3)o2)c1`, inhibition was half-maximal at 235 µM (IC50).
In turn, `Fc1cccc(CSc2nnc(-c3ccncc3)o2)c1` came in with an IC50 of 1.4 µM.

As a reminder, the IC50 is the concentration that inhibits the measured activity by half.
